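Five compound concentrations were applied to cells in 96-well plates for 48 hours; endpoints were derived by simple linear interpolation of the resulting dose-response curve. TGI is the concentration that stops growth completely.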
Columns and labels:
Assay in all cases: NCI-60 cell line screen, 48 h
SNB-75 CNS = tested on: SNB-75 CNS
IGROV1 ovarian = tested on: IGROV1 ovarian
CAKI-1 renal = tested on: CAKI-1 renal
A498 renal = tested on: A498 renal
SF-295 CNS = tested on: SF-295 CNS
U251 CNS = tested on: U251 CNS
HT29 colon = tested on: HT29 colon
786-0 renal = tested on: 786-0 renal
HCC-2998 colon = tested on: HCC-2998 colon
OVCAR-8 ovarian = tested on: OVCAR-8 ovarian
MALME-3M melanoma = tested on: MALME-3M melanoma
EKVX NSCLC = tested on: EKVX NSCLC
SF-539 CNS = tested on: SF-539 CNS
HCT-116 colon = tested on: HCT-116 colon
MDA-MB-231 breast = tested on: MDA-MB-231 breast
KM12 colon = tested on: KM12 colon
NCI-H522 lung = tested on: NCI-H522 lung
TK-10 renal = tested on: TK-10 renal
BT-549 breast = tested on: BT-549 breast
RPMI-8226 leukemia = tested on: RPMI-8226 leukemia
RXF 393 renal = tested on: RXF 393 renal
UACC-62 melanoma = tested on: UACC-62 melanoma
PC-3 prostate = tested on: PC-3 prostate
MOLT-4 leukemia = tested on: MOLT-4 leukemia
OVCAR-4 ovarian = tested on: OVCAR-4 ovarian
NCI/ADR-RES ovarian = tested on: NCI/ADR-RES ovarian
T-47D breast = tested on: T-47D breast
MCF7 breast = tested on: MCF7 breast
A549 NSCLC = tested on: A549 NSCLC
CCRF-CEM leukemia = tested on: CCRF-CEM leukemia
SW-620 colon = tested on: SW-620 colon
K-562 leukemia = tested on: K-562 leukemia
NCI-H23 lung = tested on: NCI-H23 lung
SF-268 CNS = tested on: SF-268 CNS
UACC-257 melanoma = tested on: UACC-257 melanoma
COLO 205 colon = tested on: COLO 205 colon
LOX IMVI melanoma = tested on: LOX IMVI melanoma
SNB-19 CNS = tested on: SNB-19 CNS
SK-MEL-28 melanoma = tested on: SK-MEL-28 melanoma
MDA-MB-435 = tested on: MDA-MB-435
NCI-H460 lung = tested on: NCI-H460 lung
HL-60(TB) leukemia = tested on: HL-60(TB) leukemia
OVCAR-5 ovarian = tested on: OVCAR-5 ovarian
M14 melanoma = tested on: M14 melanoma
UO-31 renal = tested on: UO-31 renal
HS 578T breast = tested on: HS 578T breast
MDA-N = tested on: MDA-N
DU-145 prostate = tested on: DU-145 prostate
HCT-15 colon = tested on: HCT-15 colon
SK-MEL-5 melanoma = tested on: SK-MEL-5 melanoma
HOP-92 NSCLC = tested on: HOP-92 NSCLC
SK-OV-3 ovarian = tested on: SK-OV-3 ovarian
OVCAR-3 ovarian = tested on: OVCAR-3 ovarian
NCI-H226 lung = tested on: NCI-H226 lung
SK-MEL-2 melanoma = tested on: SK-MEL-2 melanoma
ACHN renal = tested on: ACHN renal
SN12C renal = tested on: SN12C renal
HOP-62 NSCLC = tested on: HOP-62 NSCLC

**Q.** CC(C)(C)C1(O)C=C(O)C(=O)N1NC(=O)c1ccccc1Nc1ccccc1 (stereo not drawn) was tested. Which TGI (SNB-75 CNS) did it give?
**A.** > 100 µM

**Q.** What about the TGI (IGROV1 ovarian) of the same compound?
**A.** > 100 µM

**Q.** What about the TGI (CAKI-1 renal) of the same compound?
**A.** > 100 µM

**Q.** What about the TGI (A498 renal) of the same compound?
**A.** > 100 µM

**Q.** And the TGI (SF-295 CNS)?
**A.** > 100 µM

**Q.** What about the TGI (U251 CNS) of the same compound?
**A.** > 100 µM

**Q.** What about the TGI (HT29 colon) of the same compound?
**A.** > 100 µM

**Q.** What about the TGI (786-0 renal) of the same compound?
**A.** > 100 µM

**Q.** And the TGI (HCC-2998 colon)?
**A.** 62.9 µM

**Q.** And the TGI (OVCAR-8 ovarian)?
**A.** > 100 µM

**Q.** What about the TGI (MALME-3M melanoma) of the same compound?
**A.** > 100 µM

**Q.** And the TGI (EKVX NSCLC)?
**A.** > 100 µM

**Q.** What about the TGI (SF-539 CNS) of the same compound?
**A.** > 100 µM

**Q.** What about the TGI (HCT-116 colon) of the same compound?
**A.** > 100 µM

**Q.** And the TGI (MDA-MB-231 breast)?
**A.** > 100 µM

**Q.** And the TGI (KM12 colon)?
**A.** > 100 µM

**Q.** And the TGI (NCI-H522 lung)?
**A.** 81.2 µM

**Q.** And the TGI (TK-10 renal)?
**A.** > 100 µM

**Q.** And the TGI (BT-549 breast)?
**A.** > 100 µM

**Q.** And the TGI (RPMI-8226 leukemia)?
**A.** > 100 µM

**Q.** What about the TGI (RXF 393 renal) of the same compound?
**A.** > 100 µM

**Q.** What about the TGI (UACC-62 melanoma) of the same compound?
**A.** 63 µM

**Q.** What about the TGI (PC-3 prostate) of the same compound?
**A.** > 100 µM

**Q.** What about the TGI (MOLT-4 leukemia) of the same compound?
**A.** 29 µM

**Q.** And the TGI (OVCAR-4 ovarian)?
**A.** > 100 µM

**Q.** What about the TGI (NCI/ADR-RES ovarian) of the same compound?
**A.** > 100 µM

**Q.** And the TGI (T-47D breast)?
**A.** > 100 µM

**Q.** What about the TGI (MCF7 breast) of the same compound?
**A.** > 100 µM

**Q.** What about the TGI (A549 NSCLC) of the same compound?
**A.** > 100 µM

**Q.** And the TGI (CCRF-CEM leukemia)?
**A.** 57.6 µM

**Q.** What about the TGI (SW-620 colon) of the same compound?
**A.** > 100 µM

**Q.** And the TGI (K-562 leukemia)?
**A.** > 100 µM

**Q.** What about the TGI (NCI-H23 lung) of the same compound?
**A.** > 100 µM

**Q.** And the TGI (SF-268 CNS)?
**A.** > 100 µM

**Q.** What about the TGI (UACC-257 melanoma) of the same compound?
**A.** 72.2 µM

**Q.** And the TGI (COLO 205 colon)?
**A.** > 100 µM

**Q.** And the TGI (LOX IMVI melanoma)?
**A.** > 100 µM

**Q.** And the TGI (SNB-19 CNS)?
**A.** > 100 µM

**Q.** And the TGI (SK-MEL-28 melanoma)?
**A.** > 100 µM

**Q.** What about the TGI (MDA-MB-435) of the same compound?
**A.** > 100 µM

**Q.** What about the TGI (NCI-H460 lung) of the same compound?
**A.** > 100 µM

**Q.** And the TGI (HL-60(TB) leukemia)?
**A.** 7.25 µM

**Q.** And the TGI (OVCAR-5 ovarian)?
**A.** > 100 µM

**Q.** And the TGI (M14 melanoma)?
**A.** > 100 µM

**Q.** And the TGI (UO-31 renal)?
**A.** > 100 µM

**Q.** What about the TGI (HS 578T breast) of the same compound?
**A.** > 100 µM

**Q.** And the TGI (MDA-N)?
**A.** > 100 µM

**Q.** What about the TGI (DU-145 prostate) of the same compound?
**A.** > 100 µM

**Q.** What about the TGI (HCT-15 colon) of the same compound?
**A.** > 100 µM

**Q.** And the TGI (SK-MEL-5 melanoma)?
**A.** > 100 µM

**Q.** What about the TGI (HOP-92 NSCLC) of the same compound?
**A.** > 100 µM

**Q.** What about the TGI (SK-OV-3 ovarian) of the same compound?
**A.** > 100 µM

**Q.** And the TGI (OVCAR-3 ovarian)?
**A.** 31.9 µM

**Q.** And the TGI (NCI-H226 lung)?
**A.** > 100 µM

**Q.** What about the TGI (SK-MEL-2 melanoma) of the same compound?
**A.** > 100 µM

**Q.** What about the TGI (ACHN renal) of the same compound?
**A.** > 100 µM

**Q.** And the TGI (SN12C renal)?
**A.** > 100 µM

**Q.** CCOC(=O)c1c[nH]cc1-c1cn(S(=O)(=O)c2ccccc2)cc1C was tested. Which TGI (SNB-75 CNS) did it give?
**A.** 63.1 µM

**Q.** And the TGI (IGROV1 ovarian)?
**A.** 77.7 µM

**Q.** What about the TGI (CAKI-1 renal) of the same compound?
**A.** 48.4 µM

**Q.** And the TGI (A498 renal)?
**A.** > 10 µM

**Q.** And the TGI (SF-295 CNS)?
**A.** > 100 µM

**Q.** And the TGI (U251 CNS)?
**A.** 85.4 µM

**Q.** And the TGI (HT29 colon)?
**A.** 52.8 µM

**Q.** And the TGI (786-0 renal)?
**A.** > 100 µM

**Q.** And the TGI (HCC-2998 colon)?
**A.** 41 µM

**Q.** And the TGI (OVCAR-8 ovarian)?
**A.** > 100 µM

**Q.** What about the TGI (MALME-3M melanoma) of the same compound?
**A.** 40.4 µM

**Q.** What about the TGI (EKVX NSCLC) of the same compound?
**A.** 71.3 µM

**Q.** What about the TGI (SF-539 CNS) of the same compound?
**A.** 53.5 µM

**Q.** And the TGI (HCT-116 colon)?
**A.** 58.9 µM

**Q.** What about the TGI (MDA-MB-231 breast) of the same compound?
**A.** > 100 µM

**Q.** What about the TGI (KM12 colon) of the same compound?
**A.** 49 µM

**Q.** What about the TGI (NCI-H522 lung) of the same compound?
**A.** 46.4 µM

**Q.** And the TGI (TK-10 renal)?
**A.** > 100 µM

**Q.** And the TGI (BT-549 breast)?
**A.** 74.8 µM

**Q.** And the TGI (RXF 393 renal)?
**A.** > 100 µM

**Q.** And the TGI (UACC-62 melanoma)?
**A.** 33.6 µM

**Q.** And the TGI (PC-3 prostate)?
**A.** 56.3 µM

**Q.** What about the TGI (MOLT-4 leukemia) of the same compound?
**A.** > 100 µM

**Q.** What about the TGI (OVCAR-4 ovarian) of the same compound?
**A.** > 100 µM

**Q.** And the TGI (NCI/ADR-RES ovarian)?
**A.** > 100 µM

**Q.** And the TGI (T-47D breast)?
**A.** > 100 µM

**Q.** What about the TGI (MCF7 breast) of the same compound?
**A.** 61 µM

**Q.** What about the TGI (A549 NSCLC) of the same compound?
**A.** > 100 µM

**Q.** And the TGI (CCRF-CEM leukemia)?
**A.** > 100 µM

**Q.** What about the TGI (SW-620 colon) of the same compound?
**A.** > 10 µM

**Q.** And the TGI (K-562 leukemia)?
**A.** 86.4 µM

**Q.** What about the TGI (NCI-H23 lung) of the same compound?
**A.** 69.8 µM

**Q.** And the TGI (SF-268 CNS)?
**A.** 78.6 µM

**Q.** And the TGI (UACC-257 melanoma)?
**A.** 37.6 µM

**Q.** And the TGI (COLO 205 colon)?
**A.** 42.4 µM

**Q.** What about the TGI (LOX IMVI melanoma) of the same compound?
**A.** 71.9 µM

**Q.** And the TGI (SNB-19 CNS)?
**A.** > 100 µM

**Q.** What about the TGI (SK-MEL-28 melanoma) of the same compound?
**A.** 38.4 µM

**Q.** What about the TGI (MDA-MB-435) of the same compound?
**A.** > 10 µM

**Q.** And the TGI (NCI-H460 lung)?
**A.** 47.3 µM

**Q.** And the TGI (HL-60(TB) leukemia)?
**A.** > 100 µM

**Q.** What about the TGI (OVCAR-5 ovarian) of the same compound?
**A.** > 100 µM

**Q.** What about the TGI (M14 melanoma) of the same compound?
**A.** 44.3 µM

**Q.** And the TGI (UO-31 renal)?
**A.** > 100 µM

**Q.** What about the TGI (HS 578T breast) of the same compound?
**A.** 46.2 µM

**Q.** And the TGI (MDA-N)?
**A.** 48.4 µM

**Q.** And the TGI (DU-145 prostate)?
**A.** > 100 µM

**Q.** And the TGI (HCT-15 colon)?
**A.** 76.4 µM

**Q.** And the TGI (HOP-62 NSCLC)?
**A.** > 100 µM

**Q.** And the TGI (SK-MEL-5 melanoma)?
**A.** > 10 µM

**Q.** What about the TGI (HOP-92 NSCLC) of the same compound?
**A.** > 100 µM

**Q.** What about the TGI (SK-OV-3 ovarian) of the same compound?
**A.** > 100 µM

**Q.** And the TGI (OVCAR-3 ovarian)?
**A.** 61.8 µM

**Q.** And the TGI (SK-MEL-2 melanoma)?
**A.** > 100 µM

**Q.** And the TGI (ACHN renal)?
**A.** 64.3 µM

**Q.** What about the TGI (SN12C renal) of the same compound?
**A.** 59.6 µM
